Experimental data reported in US8883841B2, “Oncogenic ras-specific cytotoxic compound and methods of use thereof” (The Board of Regents of the University of Texas System, priority 2005, dated 2014).
Where two headings read alike, the source gives them in different places.

Columns and labels:
H226B cells = experiment: Cell viability, H226B lung cancer cells; format: cell-based, human; conditions: Homo sapiens
A549 cells = experiment: Cell viability, A549 lung cancer cells; format: cell-based, human; conditions: Homo sapiens, A549, read-out: IC50 (−LogM), A549, Lung (converted)
A549CK8 = experiment: Cell viability, A549CK8 lung cancer cells; format: cell-based, human; conditions: Homo sapiens, read-out: IC50 (−LogM) (converted)
Hct116 = experiment: Cell viability, Hct116 colon cancer cells; format: cell-based, human; conditions: Homo sapiens, HCT-116, read-out: IC50 (−LogM), Hct116, Colon (converted)
CT116P53 = experiment: Cell viability, CT116P53 colon cancer cells; format: cell-based, human; conditions: Homo sapiens, read-out: IC50 (−LogM) (converted)
HKE3 = experiment: Cell viability, HKE3 colon cancer cells; format: cell-based, human; conditions: Homo sapiens
H322 cells = experiment: Cell viability, H322 lung cancer cells; format: cell-based, human; conditions: Homo sapiens, NCI-H322, read-out: IC50 (−LogM) (converted)
H1299 cells = experiment: Cell viability, H1299 lung cancer cells; format: cell-based, human; conditions: Homo sapiens, NCI-H1299, read-out: IC50 (−LogM), h1299, Lung (converted)
AsPC-1 = experiment: Cell viability, AsPC-1 pancreatic cancer cells; format: cell-based, human; conditions: Homo sapiens, ASPC1, read-out: IC50 (−LogM), ASPC1, Pancrease (converted)
DLD1 = experiment: Cell viability, DLD1 colon cancer cells; format: cell-based, human; conditions: Homo sapiens, DLD-1, read-out: IC50 (−LogM) (converted)
Heb46 = experiment: Cell viability, Heb46 kidney cells; format: cell-based
Heb44 = experiment: Cell viability, Heb44 kidney cells; format: cell-based
Capanc-1 = experiment: Cell viability, Capanc-1 pancreatic cancer cells; format: cell-based, human; conditions: Homo sapiens, Pancreatic cancer cell, read-out: IC50 (−LogM), capanc1, Pancrease (converted)
miapac = experiment: Cell viability, miapac pancreatic cancer cells; format: cell-based, human; conditions: Homo sapiens, Pancreatic cancer cell, read-out: IC50 (−LogM) (converted)
H2122 = experiment: Cell viability, H2122 lung cancer cells; format: cell-based, human; conditions: Homo sapiens, NCI-H2122, read-out: IC50 (−LogM) (converted)
H2009 = experiment: Cell viability, H2009 lung cancer cells; format: cell-based, human; conditions: Homo sapiens, NCI-H2009, read-out: IC50 (−LogM) (converted)
H23 = experiment: Cell viability, H23 lung cancer cells; format: cell-based, human; conditions: Homo sapiens, NCI-H23, read-out: IC50 (−LogM) (converted)
H1933 = experiment: Cell viability, H1933 lung cancer cells; format: cell-based, human; conditions: Homo sapiens, read-out: IC50 (−LogM) (converted)
H1395 = experiment: Cell viability, H1395 lung cancer cells; format: cell-based, human; conditions: Homo sapiens, NCI-H1395, read-out: IC50 (−LogM) (converted)
H2087 = experiment: Cell viability, H2087 lung cancer cells; format: cell-based, human; conditions: Homo sapiens, NCI-H2087, read-out: IC50 (−LogM) (converted)
Ovcar3 = experiment: Cell viability, Ovcar3 ovary cancer cells; format: cell-based; conditions: Homo sapiens, OVCAR-3
Ovcar443 = experiment: Cell viability, Ovcar443 ovary cancer cells; format: cell-based
Hey = experiment: Cell viability, Hey ovary cancer cells; format: cell-based
Ovca429 = experiment: Cell viability, Ovca429 ovary cancer cells; format: cell-based
SKOV3 = experiment: Cell viability, SKOV3 ovary cancer cells; format: cell-based; conditions: Homo sapiens, SK-OV-3
T29 cells [1] = experiment: cells; conditions: Homo sapiens, T29, read-out: IC50 in T29 cells
T29Kt1 cells [2] = experiment: cells; conditions: Homo sapiens, T29Kt1, read-out: IC50 in T29k cells, Table 1
H460 cells [3] = experiment: cells; conditions: Homo sapiens
T29 cells [4] = test system: T29 cells
T29Kt1 cells [5] = test system: T29Kt1 cells
H460 cells [6] = conditions: up to 100 μM
PKCiota = experiment: Immunohistochemical staining, subcellular localization of PKCiota; format: cell-based, human; conditions: 12 h; comparators at doses giving similar cell killing
Method: Effects on subcellular localization of PKCiota. […] To further investigate molecular mechanisms of Oncrasin action the inventors studied the subcellular localization of several molecules involved in Ras-signaling pathway because the functions of Ras and other proteins are directly related to their subcellular localizations. For this purpose, T29Kt1 or H460 cells were seeded on cover glass slides and treated with DMSO or Oncrasin-1 for 12 h. Cells were then fixed with paraformaldehyde, permeabilized with Triton X-100 and stained with various antibodies for immunohistochemical examination. […] Nevertheless, substantial subcellular localization change was detected for PKCiota after Oncrasin-1 treatment (FIG. 6). In both H460 and T29Kt1 cells, both PKCiota and PKCzeta were diffusely distributed in cells with high concentration on cell membrane in nucleus, consisting with previous reports that aPKC contains both nuclear localization signal (NLS) and nuclear export signal (NES), and can shuttle between cytoplasm and nucleus, which was regulated by intramolecular conformational changes, phosphorylation or by treatment with growth factors (Perander et al., 2001; White et al., 2002; Neri et al., 1999). […] Such aggregation of PKCiota was not observed in Oncrasin-resistant T29 and H1299 cells. The inventors then tested whether PKCiota aggregation in the nucleus can be induced by other chemotherapeutic agents such as 5-fluorouracil (5-FU) and paclitaxol.

[7] = at any of the doses tested (dose response)
[8] = up to 100 μM, the highest concentration tested

O=Cc1cn(Cc2cccc([N+](=O)[O-])c2)c2ccccc12 [Oncrasin K68, 1-(3-nitrobenzyl)-1H-indole-3-carbaldehyde]
IC50 (H226B cells; read-out: IC50 (−LogM), H226B, Lung, first H226B line (converted)): 0.00251 µM
IC50 (H226B cells; read-out: IC50 (−LogM), H226B, Lung, second H226B line (converted)): 0.0631 µM
IC50 (A549 cells): 5.01 µM
IC50 (A549CK8): 3.16 µM
IC50 (Hct116): 0.158 µM
IC50 (CT116P53): < 31.6 µM
IC50 (HKE3; read-out: IC50 (−LogM), HKE3, Colon, first HKE3 line (converted)): 0.1 µM
IC50 (HKE3; read-out: IC50 (−LogM), HKE3, Colon, second HKE3 line (converted)): 0.398 µM
IC50 (H322 cells): 31.6 µM
IC50 (H1299 cells): 10 µM
IC50 (AsPC-1): 2 µM
IC50 (DLD1): < 31.6 µM
IC50 (Heb46): 0.2 µM
IC50 (Heb44): 0.01 µM
IC50 (Capanc-1): 31.6 µM
IC50 (miapac): < 31.6 µM
IC50 (H2122): 1 µM
IC50 (H2009): 31.6 µM
IC50 (H23): 31.6 µM
IC50 (H1933): 25.1 µM
IC50 (H1395): < 31.6 µM
IC50 (H2087): 31.6 µM
IC50 (Ovcar3): 0.158 µM
IC50 (Ovcar443): 10 µM
IC50 (Hey): < 31.6 µM
IC50 (Ovca429): 31.6 µM
IC50 (SKOV3): 1 µM
IC50 (T29 cells [1]): 31.6 µM
IC50 (T29Kt1 cells [2]): 0.501 µM
IC50 (H460 cells [3]; NCI-H460, read-out: IC50 (−LogM), H460, Lung (converted)): 0.0398 µM
IC50 (H460 cells [3]; NCI-H460, read-out: IC50 in H460 cells, Table 1): 0.0398 µM

OCc1c[nH]c2ccccc12 [indole-3-carbinol, reference compound]
toxicity to T29 cells (T29 cells [4]; [7]): did not induce any cytotoxicity
cytotoxicity in T29 cells (T29 cells [4]; [8]): did not have any cytotoxic effects
toxicity to T29K cells (T29Kt1 cells [5]; same dose range as tested for the leader): did not induce any cytotoxicity
cytotoxicity in T29Kt1 cells (T29Kt1 cells [5]; up to 100 μM): did not have any cytotoxic effects
toxicity to T29Ht1 (T29H) cells (T29Ht1 cells; [7]): did not induce any cytotoxicity
cytotoxicity in T29Ht1 cells (T29Ht1 cells; [8]): did not have any cytotoxic effects
cytotoxicity in H460 cells (H460 cells [6]): did not have any cytotoxic effects

O=c1cc(N2CCOCC2)oc2c(-c3ccccc3)cccc12 [LY294003, reference compound]
PKCiota aggregation in the nucleus, T29Kt1 cells (PKCiota): did not induce PKCiota aggregation
